{"source": "patent US20040147613A1", "about": "“Use of neuroactive substances for the treatment of parkinsons disease and pharmaceutical combination” (priority 2001, published 2004)", "origin": "cited, not measured here", "key": {"[1]": {"tested_on": "central DA-receptors", "conditions": "foetal administrations"}, "[2]": {"tested_on": "GABAergic axosomatic synapses in the medial prefrontal cortex", "conditions": "4-month chronic treatment, rat"}, "[3]": {"tested_on": "local synapse populations / central projections"}}, "data": [{"compound": "β-endorphin", "values": [{"measurement": "effect on central DA-receptors", "setting": "[1]", "value": "expression of the plastic capacities, typical of adult rats, of central DA-receptors ceases"}]}, {"compound": "O=C(CCCN1CCC(O)(c2ccc(Cl)cc2)CC1)c1ccc(F)cc1", "note": "[haloperidol]", "values": [{"measurement": "number of GABAergic axosomatic synapses in the medial prefrontal cortex", "setting": "[2]", "value": "dramatic rise in the number of GABAergic axosomatic synapses"}, {"measurement": "sprouting of glutamatergic corticostriatal projections", "setting": "[3]; 14-day chronic treatment", "value": "indications of transsynaptic sprouting of glutamatergic corticostriatal projections"}]}, {"compound": "CNCCCN1c2ccccc2CCc2ccccc21", "note": "[desipramine]", "values": [{"measurement": "axonal sprouting of central projections", "setting": "[3]; chronic treatment", "value": "induces axonal sprouting of central noradrenergic and probably also dopaminergic cortical projections"}]}]}
